Results reported in ChEMBL document CHEMBL1158974, “Iridoids: a new class of leishmanicidal agents from Nyctanthes arbortristis” (J Nat Prod, 1991).
The source made the active and inactive calls. No cut-off for these calls is given here.

Tests used:
Leishmania donovani [1] = test: Antileishmanial activity against Leishmania donovani HOM/IN/80/Dd8 amastigotes infected in Sigmodon hispidus peritoneal macrophages assessed as reduction in infected macrophages at 30 ug/ml; type: functional; settings: for inhibition at 30 µg/mL: HOM/IN/80/Dd8, in Sigmodon hispidus
Leishmania donovani [2] = test: Antileishmanial activity against Leishmania donovani HOM/IN/80/Dd8 amastigotes infected in Sigmodon hispidus peritoneal macrophages assessed as reduction in average number of amastigotes per infected macrophage at 30 ug/ml; type: functional; settings: for inhibition at 30 µg/mL: HOM/IN/80/Dd8, in Sigmodon hispidus
[3] = Cytotoxicity against Sigmodon hispidus peritoneal macrophages at 60 ug/ml; type: cell-based; settings: peritoneal macrophage cell
Leishmania donovani [4] = test: Antileishmanial activity against Leishmania donovani HOM/IN/80/Dd8 amastigotes infected in Mesocricetus auratus at 10 mg/kg, ip administered daily for 5 days measured after 7 days; type: functional; settings: for inhibition in vivo at 10 mg/kg: HOM/IN/80/Dd8, in Mesocricetus auratus, route intraperitoneal
Leishmania donovani [5] = test: Antileishmanial activity against Leishmania donovani HOM/IN/80/Dd8 amastigotes infected in Mesocricetus auratus assessed as survival days at 10 mg/kg, ip administered daily for 5 days; type: functional
Leishmania donovani [6] = test: Antileishmanial activity against Leishmania donovani HOM/IN/80/Dd8 amastigotes infected in Sigmodon hispidus peritoneal macrophages assessed as reduction in infected macrophages at 100 ug/ml; type: functional
Leishmania donovani [7] = test: Antileishmanial activity against Leishmania donovani HOM/IN/80/Dd8 amastigotes infected in Sigmodon hispidus peritoneal macrophages assessed as reduction in average number of amastigotes per infected macrophage at 100 ug/ml; type: functional
Leishmania donovani [8] = test: Antileishmanial activity against Leishmania donovani HOM/IN/80/Dd8 amastigotes infected in Mesocricetus auratus at 10 mg/kg, ip administered daily for 5 days measured after 28 days; type: functional
Leishmania donovani [9] = test: Antileishmanial activity against Leishmania donovani HOM/IN/80/Dd8 amastigotes infected in Mesocricetus auratus at 100 mg/kg, po administered daily for 5 days; type: functional; settings: HOM/IN/80/Dd8, in Mesocricetus auratus, 120 h
Leishmania donovani [10] = test: Antileishmanial activity against Leishmania donovani HOM/IN/80/Dd8 amastigotes infected in Sigmodon hispidus peritoneal macrophages assessed as reduction in infected macrophages at 60 ug/ml; type: functional; settings: HOM/IN/80/Dd8, in Sigmodon hispidus
Leishmania donovani [11] = test: Antileishmanial activity against Leishmania donovani HOM/IN/80/Dd8 amastigotes infected in Sigmodon hispidus peritoneal macrophages assessed as reduction in average number of amastigotes per infected macrophage at 60 ug/ml; type: functional; settings: HOM/IN/80/Dd8, in Sigmodon hispidus
Leishmania donovani [12] = test: Antileishmanial activity against Leishmania donovani HOM/IN/80/Dd8 amastigotes assessed as minimum effective dose; type: functional, organism-based
[13] = HOM/IN/80/Dd8, in Sigmodon hispidus

Compound	inhibition at 30 µg/mL (Leishmania donovani [1]) [%]	inhibition at 30 µg/mL (Leishmania donovani [2]) [%]	Activity [3]	inhibition in vivo at 10 mg/kg (Leishmania donovani [4]) [%]	Survival (Leishmania donovani [5]; route intraperitoneal) [days]	inhibition (Leishmania donovani [4])	inhibition (Leishmania donovani [8])	other results
COC(=O)C1=CO[C@@H](O[C@@H]2O[C@H](CO)[C@@H](O)[C@H](O)[C@H]2O)[C@@H]2[C@@H](C)[C@@H](O)[C@@H](O)[C@H]12	42.2	65.8	Toxic	30.8	<28	–	–	–
COC(=O)C1=CO[C@@H](O[C@@H]2O[C@H](CO)[C@@H](O)[C@H](O)[C@H]2O)[C@@H]2[C@@H](C)[C@@H](OC(=O)/C=C/c3ccc(OC)cc3)[C@@H](O)[C@H]12 [ARBORTRISTOSIDE A]	7.13	45.8	–	18.2	38	–	–	inhibition at 100 µg/mL (Leishmania donovani [6]; [13]): 30.2%; inhibition at 100 µg/mL (Leishmania donovani [7]; [13]): 64.6%; inhibition in vivo at 10 mg/kg (Leishmania donovani [8]; HOM/IN/80/Dd8, in Mesocricetus auratus, route intraperitoneal): 79.7%; inhibition in vivo at 100 mg/kg (Leishmania donovani [9]): 57%
COC(=O)C1=CO[C@@H](O[C@@H]2O[C@H](CO)[C@@H](O)[C@H](O)[C@H]2O)[C@@H]2[C@@H](CO)[C@@H](OC(=O)/C=C/c3ccc(O)c(O)c3)[C@@H](O)[C@H]12 [ARBORTRISTOSIDE B]	28.1	25.1	–	–	59	inactive	inactive	inhibition at 60 µg/mL (Leishmania donovani [10]): 41.7%; inhibition at 60 µg/mL (Leishmania donovani [11]): 47.3%
COC(=O)C1=CO[C@@H](O[C@@H]2O[C@H](CO)[C@@H](O)[C@H](O)[C@H]2O)[C@@H]2[C@@H](C)[C@@H](OC(=O)/C=C/c3ccc(O)cc3)[C@@H](O)[C@H]12 [ARBORTRISTOSIDE C]	39.9	67.4	Toxic	–	<28	inactive	–	–
sodium stibogluconate	–	–	–	–	–	71.9%	93.5%	inhibition (Leishmania donovani [1]): 80%; inhibition (Leishmania donovani [6]): 100%; inhibition (Leishmania donovani [2]): 80%; inhibition (Leishmania donovani [7]): 100%; MED (Leishmania donovani [12]): 10 mg/kg; Survival (Leishmania donovani [5]): < 30 days
